# Reference: US20080038809A1, “ISOLATED LECTIN POLYPEPTIDES CONSISTING OF TRUNCATED […] UDP-GalNAc:POLYPEPTIDE N- ACETYLGALACTOSAMINYLTRANSFERASES” (GLYCOZYM APS, priority 2002, published 2008)
# Key:
# GalNAc-T4 lectin domain = target: T1, GalNAc-T4 lectin domain (Homo sapiens, UniProt Q8N4A0); assay: Inhibition of GalNAc-T4 lectin domain (T4ld) binding to GalNAc-MUC1 glycopeptide, ELISA
# T1 construct: comprises amino acid residues 405-578 of GALNT4; made in house; host or cells: baculovirus (pAcGP67-A), virus made in Sf9, protein produced in High Five insect cells
# T1 sequence (Q8N4A0 405-578): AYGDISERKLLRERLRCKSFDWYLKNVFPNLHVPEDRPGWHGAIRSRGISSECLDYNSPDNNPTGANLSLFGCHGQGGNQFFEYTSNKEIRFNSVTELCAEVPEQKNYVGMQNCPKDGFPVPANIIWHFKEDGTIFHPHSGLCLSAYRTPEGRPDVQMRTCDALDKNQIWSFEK
# Method: (§1) Direct binding ELISA assay was developed as follows: Polystyrene microtiter plates (Maxisorb, Nunc, Denmark) were coated with peptides or enzymatically glycosylated glycopeptides in PBS overnight at 4° C. Plates were washed and blocked with 0.1% Tween20 and 0.2% BSA in PBS for 1 h at room temperature, followed by incubation with biotinylated proteins in PBS with 0.05% Tween20 for 2 h at room temperature. After four washes with PBS, plates were incubated with 1:2,000 dilution streptavidin-HRP (Sigma) in PBS for 30 min at room temperature and washed four times with PBS. Development was performed with 0.5 mg/ml o-phenylenediamine and 0.02% H2O2 at room temperature for 15 min, and reaction stopped by adding 100 μl/well of 0.5 N H2SO4. Competitive inhibition assays were done at end-point titers of GalNAc-transferase proteins with one hour preincubations with inhibitor.
# (§2) In binding studies using lectins without biotinylation antibodies to the HIS-tag and the T7-tag, or in some experiments antibodies raised to GalNAc-T2 and -T4 enzymes were used to detect binding.
# (§3) Inhibition experiments were used to further define the binding specificity of GalNAc-T2 and -T4 secreted soluble enzymes as well as lectin domains compared to Helix Pomatia lectin (Table IV).
# [1] = target: T2, secreted soluble GalNAc-T4 (Homo sapiens, UniProt Q8N4A0); assay: Inhibition of secreted soluble GalNAc-T4 (sT4) binding to GalNAc-MUC1 glycopeptide, ELISA
# T2 construct: 6xHis (N); thrombin cleavage site (N); T7 antibody site (N); made in house; host or cells: baculovirus (pAcGP67A), High Five insect cells
# T2 sequence (Q8N4A0 36-578 limits assumed): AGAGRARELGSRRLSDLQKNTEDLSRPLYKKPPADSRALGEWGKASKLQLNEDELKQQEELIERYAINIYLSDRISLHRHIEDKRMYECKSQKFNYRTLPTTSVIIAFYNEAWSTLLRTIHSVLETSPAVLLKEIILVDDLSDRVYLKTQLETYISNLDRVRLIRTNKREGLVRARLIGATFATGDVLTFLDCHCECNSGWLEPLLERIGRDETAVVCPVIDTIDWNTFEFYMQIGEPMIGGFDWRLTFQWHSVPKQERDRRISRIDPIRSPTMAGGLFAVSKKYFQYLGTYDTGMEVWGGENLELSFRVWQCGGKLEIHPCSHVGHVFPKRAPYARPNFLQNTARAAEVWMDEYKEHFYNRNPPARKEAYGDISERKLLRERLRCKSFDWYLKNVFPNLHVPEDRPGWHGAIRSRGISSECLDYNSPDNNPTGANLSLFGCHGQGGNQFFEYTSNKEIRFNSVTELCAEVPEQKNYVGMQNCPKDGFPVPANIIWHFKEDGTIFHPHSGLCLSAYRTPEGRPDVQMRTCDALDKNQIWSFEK
# Method: as §1, §3
# [2] = target: T3, secreted soluble GalNAc-T2 (Homo sapiens, UniProt Q10471); assay: Inhibition of secreted soluble GalNAc-T2 (sT2) binding to GalNAc-MUC1 glycopeptide, ELISA
# T3 construct: 6xHis (N); thrombin cleavage site (N); T7 antibody site (N); made in house; host or cells: baculovirus (pAcGP67A), High Five insect cells
# T3 sequence (Q10471 52-571 limits assumed): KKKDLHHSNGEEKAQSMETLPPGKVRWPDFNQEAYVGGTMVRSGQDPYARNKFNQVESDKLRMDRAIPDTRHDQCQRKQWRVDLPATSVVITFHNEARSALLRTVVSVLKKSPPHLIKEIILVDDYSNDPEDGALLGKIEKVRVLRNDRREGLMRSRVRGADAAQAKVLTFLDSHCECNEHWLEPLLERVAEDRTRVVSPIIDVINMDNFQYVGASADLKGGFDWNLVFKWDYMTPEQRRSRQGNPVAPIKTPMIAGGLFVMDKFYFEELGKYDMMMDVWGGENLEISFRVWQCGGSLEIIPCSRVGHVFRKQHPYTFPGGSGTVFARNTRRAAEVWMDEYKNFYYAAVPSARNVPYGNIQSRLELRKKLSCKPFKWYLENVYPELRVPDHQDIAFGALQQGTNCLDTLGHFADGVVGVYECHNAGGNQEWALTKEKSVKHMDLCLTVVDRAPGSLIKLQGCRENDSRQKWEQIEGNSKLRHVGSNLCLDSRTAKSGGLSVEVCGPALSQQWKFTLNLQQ
# Method: as §1, §3
# [3] = target: human GalNAc-T2 (UDP-GalNAc:polypeptide N-acetylgalactosaminyltransferase T2), secreted soluble enzyme (sT2), wild type (Homo sapiens, UniProt Q10471); assay: biochemical; conditions: binding to GalNAc-MUC1 glycopeptide
# Chain of human GalNAc-T2 (UDP-GalNAc:polypeptide N-acetylgalactosaminyltransferase T2), secreted soluble enzyme (sT2), wild type (Q10471 52-571 limits assumed): as above
# Method: The pH of 1 ml purified protein (0.3 mg/ml) in PBS was adjusted to pH 9 with 1 M NaOH and 40 μl N-hydroxy-succinimidobiotin (Sigma) dissolved in DMF (10 mg/ml) was added. The solution was mixed end-over-end for 2 hours at room temperature, and dialyzed three times against PBS and an equal volume of glycerol was added. The biotinylated proteins were stored at −20° C. in 50% glycerol until use.
# Glycopeptides were purified by C-18 reverse phase HPLC. Peptides were custom synthesized by Neosystems (Strasbourg). Biotinylated Helix Pomatia lectin (HPA) was from KemEnTec (Denmark). Anti-MUC1 HMFG2 monoclonal antibody was a generous gift from Joyce Taylor-Papadimitriou.
# as §1, with “Development was performed with 0.5 mg/ml o-phenylenediamine and 0.02% H2O2 at room temperature for 15 min, and reaction stopped by adding 100 μl/well of 0.5 N H2SO4. Competitive inhibition assays were done at end-point titers of GalNAc-transferase proteins with one hour preincubations with inhibitor.” left out
# GalNAc-T2 lectin domain = target: T4, GalNAc-T2 lectin domain (Homo sapiens, UniProt Q10471); assay: Inhibition of GalNAc-T2 lectin domain (T2ld) binding to GalNAc-MUC1 glycopeptide, ELISA
# T4 construct: comprises amino acid residues 408-571 of GALNT2; made in house; host or cells: baculovirus (pAcGP67-A), virus made in Sf9, protein produced in High Five insect cells
# T4 sequence (Q10471 408-571): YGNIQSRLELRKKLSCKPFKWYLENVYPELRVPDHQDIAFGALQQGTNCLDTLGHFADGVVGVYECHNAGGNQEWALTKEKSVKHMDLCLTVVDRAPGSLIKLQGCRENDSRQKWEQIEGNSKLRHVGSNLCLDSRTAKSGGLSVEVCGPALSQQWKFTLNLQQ
# Method: as §1, §2, §3
# GalNAc-MUC1 glycopeptide = assay: Direct binding assay (ELISA) of biotinylated GalNAc-transferases to GalNAc-MUC1 glycopeptide (FIG. 4); design: species or system human; conditions: coated at 1 μg/ml, biotinylated enzymes
# Method: (§4) FIG. 4 is a plot of absorbance v. ligand dilution showing GalNAc-transferase binding to GalNAc-MUC1 glycopeptide. A direct binding assay (ELISA) mediated by the lectin domain was developed and validated with soluble secreted GalNAc-T4 and -T2 enzyme proteins. ELISA plates were coated with peptides or glycopeptides at 1 μg/ml, blocked with BSA, and incubated with biotinylated enzymes. After washing, bound enzyme proteins were detected with HRP-Streptavidin as described in detail in Example 2. Secreted soluble constructs of GalNAc-transferases which are enzymatically active may bind to (glyco)peptide substrates through their catalytic units as originally described for GalNAc-T2^32.
# as §1, with “Development was performed with 0.5 mg/ml o-phenylenediamine and 0.02% H2O2 at room temperature for 15 min, and reaction stopped by adding 100 μl/well of 0.5 N H2SO4. Competitive inhibition assays were done at end-point titers of GalNAc-transferase proteins with one hour preincubations with inhibitor.” left out
# [4] = test system: unglycosylated MUC1 peptide; assay: Direct binding assay (ELISA) of biotinylated GalNAc-transferases to unglycosylated MUC1 peptide (FIG. 4); design: species or system human; conditions: coated at 1 μg/ml, biotinylated enzymes
# Method: as §4
# as §1, with “Development was performed with 0.5 mg/ml o-phenylenediamine and 0.02% H2O2 at room temperature for 15 min, and reaction stopped by adding 100 μl/well of 0.5 N H2SO4. Competitive inhibition assays were done at end-point titers of GalNAc-transferase proteins with one hour preincubations with inhibitor.” left out
IC50 [1] [mM],IC50 [2] [mM],binding to GalNAc-MUC1 glycopeptide (GalNAc-MUC1 glycopeptide),binding to unglycosylated MUC1 peptide [4],Compound,other results
0.5,7,–,–,CC(=O)N[C@H]1[C@@H](Oc2ccccc2[N+](=O)[O-])O[C@H](CO)[C@H](O)[C@@H]1O [oNPαGalNAc],IC50 (GalNAc-T4 lectin domain): 5 mM
–,–,–,–,CC(=O)N[C@H]1[C@H](Oc2ccccc2[N+](=O)[O-])O[C@H](CO)[C@H](O)[C@@H]1O [oNPβGalNAc],IC50 [3]: 10 mM
1,> 10,–,–,CC(=O)N[C@H]1[C@@H](Oc2ccc([N+](=O)[O-])cc2)O[C@H](CO)[C@H](O)[C@@H]1O [pNPαGalNAc],IC50 (GalNAc-T2 lectin domain): > 10 mM
–,–,selectively bind,no significant binding,"GalNAc-T2: soluble secreted human GalNAc-T2 enzyme protein, biotinylated",–
–,–,selectively bind,no significant binding,"GalNAc-T4 wild type: soluble secreted human GalNAc-T4 enzyme protein, biotinylated",–
